Reference: patent US10201558B2, “Compositions of selenoorganic compounds and methods of use thereof” (Alltech, Inc., priority 2014, dated 2019)

System: primary fetal rat neurons
Assay: Cell survival of primary cortical neurons (cell counts)
Assay type: cell-based
Conditions: 24 hours, Control 100 ± 1.57, mixture: 30 ppb of the element from each compound; for Viable Cell Number (Mean + SEM, n = 6): 150 ppb sulfur compound(s); for Viable Cell Number (Mean ± SEM, n = 6): 150 ppb selenium compound(s)
Experimental: For primary neurons, dissociated primary cortical neuron cultures were established from E-18 rat embryos as previously described (Lovell et al., Free Radic. Biol. Med. 2000; Lovell et al., Neurobiol. Aging 2001). Studies were carried out on cells 7 days in culture by switching to Locke's solution consisting of 1 mL of 154 mM NaCl, 5.6 mM KCl, 2.3 mM CaCl2, 1.0 mM MgCl2, 3.6 mM NaHCO3, 10 mM glucose, 5 mM HEPES (pH 7.2) with 10 mg/L gentamicin sulfate. Primary neurons were treated for 24 hours in Locke's solution with the indicated selenium and sulfur compounds in Table 5. Cell counts were performed to measure cell survival/toxicity.
The effects of the selenium and sulfur compounds, identified as components of water extracts of selenium-enriched yeast, on neuronal cell survival was also tested. Primary neurons isolated from fetal rat brain were incubated with chemically synthesized individual selenium and sulfur compounds that were identified as components of water extracts of selenium-enriched yeast (Table 5). In this case, the elemental concentration of each compound identified in Table 5 was 150 ppb and, where mixtures were used, the 150 ppb treatment was made up of 30 ppb of the element from each of the five compounds in question.

Row | SMILES | Viable Cell Number (Mean + SEM, n = 6) | Viable Cell Number (Mean ± SEM, n = 6)
1 | CSC[C@H](N)C(=O)O [F, L-Methylcysteine] | 96.48 ± 3.89 | –
2 | C[Se]CC[C@H](N)C(=O)O [B, L-Selenomethionine] | – | 90.59 ± 6.82
3 | C[Se]C[C@H](N)C(=O)O [A, L-Methylselenocysteine] | – | 94.45 ± 1.72
4 | CSCC[C@H](N)C(=O)O [G, L-methionine] | 103.84 ± 4.98 | –
5 | CSC[C@H]1O[C@@H](n2cnc3c(N)ncnc32)[C@H](O)[C@@H]1O [Compound H, 5′-deoxy-5′-methylthioadenosine] | 100.24 ± 9.45 | –
